Drawing on patent US20100256105A1, “NOVEL COMPOUNDS” (AstraZeneca R&D, priority 2009, published 2010), this text covers IC50 for 13 compounds.

As a reminder, the IC50 is the concentration that gives 50% inhibition.

This test addresses T1, recombinant human GR (Homo sapiens, UniProt P04150).
T1 construct: purchased Panvera/Invitrogen P2812 (kit P2893)
T1 sequence (P04150 1-777): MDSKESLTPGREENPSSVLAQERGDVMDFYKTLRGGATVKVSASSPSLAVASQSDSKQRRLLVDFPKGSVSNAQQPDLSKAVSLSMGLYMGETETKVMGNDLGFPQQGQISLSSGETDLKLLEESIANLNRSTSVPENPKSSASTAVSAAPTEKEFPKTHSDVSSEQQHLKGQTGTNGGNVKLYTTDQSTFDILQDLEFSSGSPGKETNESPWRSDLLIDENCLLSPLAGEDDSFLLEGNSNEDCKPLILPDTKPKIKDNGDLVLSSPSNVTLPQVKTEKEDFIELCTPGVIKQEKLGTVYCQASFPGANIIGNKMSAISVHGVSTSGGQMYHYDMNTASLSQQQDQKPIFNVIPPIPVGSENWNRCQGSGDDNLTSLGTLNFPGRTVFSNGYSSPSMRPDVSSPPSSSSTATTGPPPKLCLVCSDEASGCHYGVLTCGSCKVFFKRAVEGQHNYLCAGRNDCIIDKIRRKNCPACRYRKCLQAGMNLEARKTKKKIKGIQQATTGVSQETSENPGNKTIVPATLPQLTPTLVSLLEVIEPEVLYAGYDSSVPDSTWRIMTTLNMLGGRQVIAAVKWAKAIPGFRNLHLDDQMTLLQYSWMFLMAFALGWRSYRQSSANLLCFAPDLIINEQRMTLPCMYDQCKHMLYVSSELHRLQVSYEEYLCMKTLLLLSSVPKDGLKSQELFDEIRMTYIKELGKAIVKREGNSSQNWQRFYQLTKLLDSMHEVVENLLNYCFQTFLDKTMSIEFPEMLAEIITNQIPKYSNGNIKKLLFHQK
Briefly: Human Glucocorticoid Receptor (GR) Assay, fluorescence polarization. Particulars: GS Red tracer, 2 hours at room temperature, 100% control 10 μM Dexamethasone, read-out: Inhibition of GR binding, IC50. As to the method:
Human Glucocorticoid Receptor (GR) Assay The assay is based on a commercial kit from Panvera/Invitrogen (Part number P2893). The assay technology is fluorescence polarization. The kit utilises recombinant human GR (Panvera, Part number P2812), a Fluoromone™ labelled tracer (GS Red, Panvera, Part number P2894) and a Stabilizing Peptide 10× (Panvera, Part number P2815). The GR and Stabilizing Peptide reagents are stored at −70° C. while the GS Red is stored at −20° C. Also included in the kit are 1M DTT (Panvera, Part number P2325, stored at −20° C.) and GR Screening buffer 10× (Panvera, Part number P2814, stored at −70° C. initially but once thawed stored at room temperature). Avoid repeated freeze/thaws for all reagents. The GR Screening buffer 10× comprises 100 mM potassium phosphate, 200 mM sodium molybdate, 1 mM EDTA and 20% DMSO. Test compounds (1 μL) and controls (1 μL) in 100% DMSO were added to black polystyrene 384-well plates (Greiner low volume black flat-bottom, part number 784076). 0% control was 100% DMSO and 100% control was 10 μM Dexamethasone. Background solution (8 μL; assay buffer 10×, Stabilizing Peptide, DTT and ice cold MQ water) was added to the background wells. GS Red solution (7 μL; assay buffer 10×, Stabilizing Peptide, DTT, GS Red and ice cold water) was added to all wells except background wells. GR solution (7 μL; assay buffer 10×, Stabilizing Peptide, DTT, GR and ice cold water) was added to all wells. The plate was sealed and incubated in a dark at room temperature for 2 hours. The plate was read in an Analyst plate reader (LJL Biosystems/Molecular Devices Corporation) or other similar plate reader capable of recording fluorescence polarization (excitation wavelength 530 nm, emission wavelength 590 nm and a dichroic mirror at 561 nm).
Background: Polarisation of emitted light reports the rotation of a fluorescent probe.

With `C[C@]12Cc3cnn(-c4ccc(F)nc4)c3C=C1C=C[C@@H]1[C@@H]2[C@@H](O)C[C@@]2(C)[C@H]1CC[C@]2(OC(=O)c1cocn1)C(=O)SCF` [Example 5, (1R,3aS,3bS,10aR,10bS,11S,12aS)-1-{[(fluoromethyl)sulfanyl]carbonyl}-7-(6-fluoropyridin-3-yl)-11-hydroxy-10a,12a-dimethyl-1,2,3,3a,3b,7,10,10a,10b,11,12,12a-dodecahydrocyclopenta[5,6]naphtho [1,2-f]indazol-1-yl 1,3-oxazole-4-carboxylate], the 50% inhibitory concentration (IC50) is 1.5 nM.

`CCC(=O)O[C@]1(C(=O)SCF)CC[C@H]2[C@@H]3C=C(C)C4=Cc5c(cnn5-c5ccc(F)nc5)C[C@]4(C)[C@H]3[C@@H](O)C[C@@]21C` [Example 11, (1R,3aS,3bS,10aR,10bS,11S,12aS)-1-{[(fluoromethyl)sulfanyl]carbonyl}-7-(6-fluoropyridin-3-yl)-11-hydroxy-5,10a,12a-trimethyl-1,2,3,3a,3b,7,10,10a,10b,11,12,12a-dodecahydrocyclopenta[5,6]naphtho [1,2-f]indazol-1-yl propanoate]: the IC50 was found to be 3.6 nM.

For `CCC(=O)O[C@]1(C(=O)SCC#N)CC[C@H]2[C@@H]3C=C(C)C4=Cc5c(cnn5-c5ccc(F)nc5)C[C@]4(C)[C@H]3[C@@H](O)C[C@@]21C` [Example 2, (1R,3aS,3bS,10aR,10bS,11S,12aS)-1-{[(Cyanomethyl)sulfanyl]carbonyl}-7-(6-fluoropyridin-3-yl)-11-hydroxy-5,10a,12a-trimethyl-1,2,3,3a,3b,7,10,10a,10b,-11,12,12a-dodecahydrocyclopenta[5,6]naphtho[1,2-f]indazol-1-yl propanoate], the IC50 was found to be 2.1 nM.

For the compound `CCC(=O)O[C@]1(C(=O)SCF)CC[C@H]2[C@@H]3C=CC4=Cc5c(cnn5-c5ccc(F)nc5)C[C@]4(C)[C@H]3[C@@H](O)C[C@@]21C` [Example 3, (1R,3aS,3bS,10aR,10bS,11S,12aS)-1-{[(Fluoromethyl)sulfanyl]carbonyl}-7-(6-fluoropyridin-3-yl)-11-hydroxy-10a,12a-dimethyl-1,2,3,3a,3b,7,10,10a,10b,11,12,12a-dodecahydrocyclopenta[5,6]naphtho[1,2-f]indazol-1-ylpropanoate], the IC50 amounted to 1.4 nM.

`COCC(=O)O[C@]1(C(=O)SCF)CC[C@H]2[C@@H]3C=C(C)C4=Cc5c(cnn5-c5ccc(F)nc5)C[C@]4(C)[C@H]3[C@@H](O)C[C@@]21C` [Example 16, (1R,3aS,3bS,10aR,11S,12aS)-1-{[(fluoromethyl)sulfanyl]carbonyl}-7-(6-fluoropyridin-3-yl)-11-hydroxy-5,10a,12a-trimethyl-1,2,3,3a,3b,7,10,10a,10b,11,12,12a-dodecahydrocyclopenta[5,6]naphtho [1,2-f]indazol-1-yl methoxyacetate]: the half-inhibitory concentration (IC50) was found to be 1.5 nM.

In the case of `CCC(=O)O[C@]1(C(=O)SCC#N)CC[C@H]2[C@@H]3C=CC4=Cc5c(cnn5-c5ccc(F)nc5)C[C@]4(C)[C@H]3[C@@H](O)C[C@@]21C` [Example 10, (1R,3aS,3bS,10aR,10bS,11S,12aS)-1-{[(cyanomethyl)sulfanyl]carbonyl}-7-(6-fluoropyridin-3-yl)-11-hydroxy-10a,12a-dimethyl-1,2,3,3a,3b,7,10,10a,10b,11,12,12a-dodecahydrocyclopenta[5,6]naphtho [1,2-f]indazol-1-yl propanoate], the half-maximal inhibitory concentration (IC50) was determined as 0.83 nM.

For the compound `COCC(=O)O[C@]1(C(=O)SCC#N)CC[C@H]2[C@@H]3C=CC4=Cc5c(cnn5-c5ccc(F)nc5)C[C@]4(C)[C@H]3[C@@H](O)C[C@@]21C` [Example 7, (1R,3aS,3bS,10aR,10bS,11S,12aS)-1-{[(cyanomethyl)sulfanyl]carbonyl}-7-(6-fluoropyridin-3-yl)-11-hydroxy-10a,12a-dimethyl-1,2,3,3a,3b,7,10,10a,10b,11,12,12a-dodecahydrocyclopenta[5,6]naphtho [1,2-f]indazol-1-yl methoxyacetate], the concentration for half-maximal inhibition (IC50) came out at 0.87 nM.

Regarding `CC1=C[C@@H]2[C@H]([C@@H](O)C[C@@]3(C)[C@H]2CC[C@]3(OC(=O)c2cocn2)C(=O)SCC#N)[C@@]2(C)Cc3cnn(-c4ccc(F)nc4)c3C=C12` [Example 15, (1R,3aS,3bS,10aR,10bS,11S,12aS)-1-{[cyanomethyl)sulfanyl]carbonyl}-7-(6-fluoropyridin-3-yl)-11-hydroxy-5,10a,12a-trimethyl-1,2,3,3a,3b,7,10,10a,10b,11,12,12a-dodecahydrocyclopenta[5,6]naphtho [1,2-f]indazol-1-yl 1,3-oxazole-4-carboxylate], the half-maximal inhibitory concentration (IC50) was 3.7 nM.

Take `CC1=C[C@@H]2[C@H]([C@@H](O)C[C@@]3(C)[C@H]2CC[C@]3(OC(=O)C2CC2)C(=O)SCC#N)[C@@]2(C)Cc3cnn(-c4ccc(F)nc4)c3C=C12` [Example 13, (1R,3aS,3bS,10aR,10bS,11S,12aS)-1-{[cyanomethyl)sulfanyl]carbonyl}-7-(6-fluoropyridin-3-yl)-11-hydroxy-5,10a,12a-trimethyl-1,2,3,3a,3b,7,10,10a,10b,11,12,12a-dodecahydrocyclopenta[5,6]naphtho [1,2-f]indazol-1-yl cyclopropanecarboxylate]: the IC50 was found to be 1.5 nM.

As to `C[C@]12Cc3cnn(-c4ccc(F)nc4)c3C=C1C=C[C@@H]1[C@@H]2[C@@H](O)C[C@@]2(C)[C@H]1CC[C@]2(OC(=O)C1CC1)C(=O)SCC#N` [Example 9, (1R,3aS,3bS,10aR,10bS,11S,12aS)-1-{[(cyanomethyl)sulfanyl]carbonyl}-7-(6-fluoropyridin-3-yl)-11-hydroxy-10a,12a-dimethyl-1,2,3,3a,3b,7,- 10,10a,10b,11,12,12a-dodecahydro-cyclopenta[5,6]naphtho[1,2-f]indazol-1-yl cyclopropanecarboxylate], the half-inhibitory concentration (IC50) stood at 1 nM.

With `COCC(=O)O[C@]1(C(=O)SCC#N)CC[C@H]2[C@@H]3C=C(C)C4=Cc5c(cnn5-c5ccc(F)nc5)C[C@]4(C)[C@H]3[C@@H](O)C[C@@]21C` [Example 1, (1R,3aS,3bS,10aR,10bS,11S,12aS)-1-{[(Cyanomethyl)sulfanyl]carbonyl}-7-(6-fluoropyridin-3-yl)-11-hydroxy-5,10a,12a-trimethyl-1,2,3,3a,3b,7,10,10a,10b,-11,12,12a-dodecahydrocyclopenta[5,6]naphtho[1,2-f]indazol-1-yl methoxyacetate], the half-maximal inhibitory concentration (IC50) is 2.3 nM.

Take `CCC(=O)O[C@]1(C(=O)SCC#N)[C@H](C)C[C@H]2[C@@H]3C=C(C)C4=Cc5c(cnn5-c5ccccc5)C[C@]4(C)[C@H]3[C@@H](O)C[C@@]21C` [Example 17, (1R,2R,3aS,3bS,10aR,10bS,11S,12aS)-1-{[(cyanomethyl)sulfanyl]carbonyl}-11-hydroxy-2,5,10a,12a-tetramethyl-7-phenyl-1,2,3,3a,3b,7,10,10a,- 10b,11,12,12a-dodecahydro-cyclopenta[5,6]naphtho[1,2-f]indazol-1-yl propanoate]: the IC50 is 4.8 nM.

Regarding `C[C@]12Cc3cnn(-c4ccc(F)nc4)c3C=C1C=C[C@@H]1[C@@H]2[C@@H](O)C[C@@]2(C)[C@H]1CC[C@]2(OC(=O)c1cocn1)C(=O)SCC#N` [Example 6, (1R,3aS,3bS,10aR,10bS,11S,12aS)-1-{[cyanomethyl)sulfanyl]carbonyl}-7-(6-fluoropyridin-3-yl)-11-hydroxy-10a,12a-dimethyl-1,2,3,3a,3b,7,10,10a,10b,11,12,12a-dodecahydrocyclopenta[5,6]naphtho [1,2-f]indazol-1-yl 1,3-oxazole-4-carboxylate], the IC50 turned out to be 1.8 nM.
